Assay results: patent publication US20260262643A1, “HERBICIDAL BENZOXAZINES” (FMC CORPORATION, priority 2022, published 2026)

Tests used:
[1] = tested on: soybean; experiment: Test C preemergence; assay type: in vivo, Glycine max; settings: 0 to 100 scale (0 no effect, 100 complete control)
Outline: (§1)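 Greenhouse herbicide screen, 10-day duration. Test chemicals in solvent/surfactant blend were sprayed onto soil at sowing (pre) or onto 2–10 cm seedlings at one to two leaves (post); injury scored visually against controls, 0 no effect to 100 complete control.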

[2] = tested on: wheat; experiment: Test C preemergence; assay type: in vivo, Triticum aestivum; settings: 0 to 100 scale (0 no effect, 100 complete control)
Outline: as §1

[3] = tested on: ragweed; experiment: Test C postemergence; assay type: in vivo, Ambrosia artemisiifolia; settings: 10 days
Outline: as §1

[4] = tested on: corn; experiment: Test C postemergence; assay type: in vivo, Zea mays; settings: Zea mays, post-emergence, 240 h, 10 days
Outline: as §1

[5] = tested on: ragweed; experiment: Test C preemergence; assay type: in vivo, Ambrosia artemisiifolia; settings: 0 to 100 scale (0 no effect, 100 complete control)
Outline: as §1

[6] = tested on: barnyardgrass; experiment: Test C postemergence; assay type: in vivo, Echinochloa crusgalli; settings: 10 days
Outline: as §1

[7] = tested on: corn; experiment: Test C preemergence; assay type: in vivo, Zea mays; settings: 0 to 100 scale (0 no effect, 100 complete control)
Outline: as §1

[8] = tested on: kochia; experiment: Test C preemergence; assay type: in vivo, Bassia scoparia; settings: 0 to 100 scale (0 no effect, 100 complete control)
Outline: as §1

[9] = tested on: green foxtail; experiment: Test C postemergence; assay type: in vivo, Setaria viridis; settings: 10 days
Outline: as §1

[10] = tested on: blackgrass; experiment: Test C preemergence; assay type: in vivo, Alopecurus myosuroides; settings: 0 to 100 scale (0 no effect, 100 complete control)
Outline: as §1

[11] = tested on: wheat; experiment: Test C postemergence; assay type: in vivo, Triticum aestivum; settings: 10 days
Outline: as §1

[12] = tested on: ryegrass, Italian; experiment: Test C preemergence; assay type: in vivo, Lolium multiflorum; settings: 0 to 100 scale (0 no effect, 100 complete control)
Outline: as §1

[13] = tested on: green foxtail; experiment: Test C preemergence; assay type: in vivo, Setaria viridis; settings: 0 to 100 scale (0 no effect, 100 complete control)
Outline: as §1

[14] = tested on: barnyardgrass; experiment: Test D flooded paddy test; assay type: in vivo, Echinochloa crus-galli; settings: 250 g ai/ha, applied to paddy water, visual rating after 13 to 14 days, scale 0 to 100 (0 no effect, 100 complete control)
Outline: (§2)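 Compounds go straight into paddy water over 2-leaf plants in pots flooded to 3 cm. Greenhouse holding lasts 13 to 14 days. Injury is scored by eye against controls from 0 (none) to 100 (complete control).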

[15] = tested on: rice; experiment: Test D flooded paddy test; assay type: in vivo, Oryza sativa; settings: 250 g ai/ha, applied to paddy water, visual rating after 13 to 14 days, scale 0 to 100 (0 no effect, 100 complete control)
Outline: as §2

[16] = tested on: blackgrass; experiment: Test C postemergence; assay type: in vivo, Alopecurus myosuroides; settings: Alopecurus myosuroides, post-emergence, 240 h, 10 days, read-out: Plant response rating, Blackgrass
Outline: as §1

[17] = tested on: ducksalad; experiment: Test D flooded paddy test; assay type: in vivo, Heteranthera limosa; settings: 250 g ai/ha, applied to paddy water, visual rating after 13 to 14 days, scale 0 to 100 (0 no effect, 100 complete control)
Outline: as §2

[18] = tested on: kochia; experiment: Test C postemergence; assay type: in vivo, Bassia scoparia; settings: 10 days
Outline: as §1

[19] = tested on: pigweed, palmer; experiment: Test C preemergence; assay type: in vivo, Amaranthus palmeri; settings: 0 to 100 scale (0 no effect, 100 complete control)
Outline: as §1

[20] = tested on: horseweed; experiment: Test C postemergence; assay type: in vivo, Erigeron canadensis; settings: 10 days
Outline: as §1

[21] = tested on: oat, wild; experiment: Test C preemergence; assay type: in vivo, Avena fatua; settings: 0 to 100 scale (0 no effect, 100 complete control)
Outline: as §1

[22] = tested on: barnyardgrass; experiment: Test C preemergence; assay type: in vivo, Echinochloa crusgalli; settings: 0 to 100 scale (0 no effect, 100 complete control)
Outline: as §1

[23] = tested on: soybean; experiment: Test C postemergence; assay type: in vivo, Glycine max; settings: 10 days
Outline: as §1

[24] = tested on: oat, wild; experiment: Test C postemergence; assay type: in vivo, Avena fatua; settings: 10 days
Outline: as §1

[25] = tested on: ryegrass, Italian; experiment: Test C postemergence; assay type: in vivo, Lolium multiflorum; settings: 10 days
Outline: as §1

[26] = tested on: pigweed, palmer; experiment: Test C postemergence; assay type: in vivo, Amaranthus palmeri; settings: 10 days
Outline: as §1

[27] = tested on: sedge, umbrella; experiment: Test D flooded paddy test; assay type: in vivo, Cyperus difformis; settings: 250 g ai/ha, applied to paddy water, visual rating after 13 to 14 days, scale 0 to 100 (0 no effect, 100 complete control)
Outline: as §2

[28] = Preemergence, 500 g ai/ha, visual rating after 10 days
[29] = Test C, preemergence, 125 g ai/ha
[30] = 125 g ai/ha, postemergence, 0 to 100 scale, 0 no effect, 100 complete control
[31] = Postemergence, 500 g ai/ha, visual 0 to 100 scale (0 no effect, 100 complete control)
[32] = 125 g ai/ha, postemergence, 0 to 100 scale (0 no effect, 100 complete control)

COc1cc(-n2cnc(C(C)C)n2)cc(C(=O)N2C[C@H](C)Oc3c(Cl)cccc32)c1OC [Compound 194, [(2S)-8-chloro-2-methyl-2,3-dihydro-1,4-benzoxazin-4-yl]-[5-(3-isopropyl-1,2,4-triazol-1-yl)-2,3-dimethoxy-phenyl]methanone]
30: Plant response rating, Barnyardgrass [6, 31] | Plant response rating, Corn [7, 28] | Plant response rating, Pigweed, Palmer [19, 28] | Plant response rating, Ryegrass, Italian [25, 30]
10%: Corn plant response rating (crop injury, 0 = no effect, 100 = complete kill) at 125 g/ha [4, 32]
20: Plant response rating, Ragweed [5, 28] | Ragweed plant response rating [5, 29] | Blackgrass plant response rating [10, 29] | Plant response rating, Wheat [11, 30] | Plant response rating, Wheat [11, 31] | Pigweed, Palmer plant response rating [19, 29] | Oat, Wild plant response rating [21, 29] | Plant response rating, Oat, Wild [24, 31] | Plant response rating, Pigweed, Palmer [26, 31]
10: Plant response rating, Soybean [1, 28] | Soybean plant response rating [1, 29] | Plant response rating, Barnyardgrass [6, 30] | Plant response rating, Foxtail, Green [9, 30] | Plant response rating, Kochia [18, 30] | Barnyardgrass plant response rating [22, 29]
80: Plant response rating, Blackgrass [10, 28] | Plant response rating, Kochia [18, 31]
30%: pest or weed control at 500 g/ha [16, 31]
100: Plant response rating, Foxtail, Green [13, 28]
70: Ryegrass, Italian plant response rating [12, 29] | Foxtail, Green plant response rating [13, 29] | Plant response rating, Barnyardgrass [22, 28] | Plant response rating, Ryegrass, Italian [25, 31]
50: Plant response rating, Wheat [2, 28] | Plant response rating, Ragweed [3, 31] | Plant response rating, Foxtail, Green [9, 31]
0%: pest or weed control at 125 g/ha [16, 32]
90: Plant response rating, Ryegrass, Italian [12, 28] | Plant response rating, Oat, Wild [21, 28] | Plant response rating, Soybean [23, 30] | Plant response rating, Soybean [23, 31]
0: Wheat plant response rating [2, 29] | Plant response rating, Ragweed [3, 30] | Corn plant response rating [7, 29] | Plant response rating, Kochia [8, 28] | Kochia plant response rating [8, 29] | Plant response rating, Barnyardgrass (Flood) [14] | Plant response rating, Rice (Flood) [15] | Plant response rating, Ducksalad (Flood) [17] | Plant response rating, Horseweed [20, 30] | Plant response rating, Horseweed [20, 31] | Plant response rating, Oat, Wild [24, 30] | Plant response rating, Pigweed, Palmer [26, 30] | Plant response rating, Sedge, Umbrella (Flood) [27]
20%: Corn plant response rating (crop injury, 0 = no effect, 100 = complete kill) at 500 g/ha [4, 31]
